# In patent publication US6426343B1, “Preparation and use of a specific GABA-Aα5 receptor ligand for treatment of Alzheimer's disease” (Merck Sharp & Dohme Ltd., priority 1995, dated 2002):
# Experiments:
# rats = assay: Watermaze experiment with SC pellet of FG 8094
# Male PVG hooded rats = assay: Morris watermaze cognitive studies; assay type: in vivo, rat
# Experimental: FG 8094 was synthesised by the Merck, Sharp and Dohme Neuroscience Research Centre's medicinal chemistry group and was suspended in 0.5% CMC. Vehicle or FG 8094 was administered IP 30 mins before the beginning of the first training trial.
# Male PVG hooded rats (Bantin & Kingman, Hull U.K.), weighting approximately 300 g, were housed in groups of four with free access to food and water. The animals were maintained on a 12/12 h light-dark cycle, with the lights on at 07:00 h.
# The Morris watermaze consists of a white, fibre-glass circular pool, of diameter 2 m, filled with an opaque mixture of water and white dye (E308, Morton International) maintained at 26-28° C. […] A hidden platform (13×13 cm) submerged 2 cm below the water surface was placed in the middle of the NE quadrant.
# A closed-circuit video camera, fitted with a wide-angle lens, was mounted directly above the centre of the pool and connected to an image analyser which digitised the image. The digital information was relay to an Archimedes microcomputer running ‘Watermaze’ a software package supplied by Paul Fray LTD (Cambridge, UK). The software package provided the following measures: latency to reach the platform, length of path taken, average swimming speed, the time spent and the total distance travelled in the target quadrant.
# The rats were assigned to four treatment groups (n=8): Vehicle, 0. 1, 0.3, 1.0 mg/kg FG 8094. During the acquisition phase of the experiment all the groups were given four trials per day. During this time the hidden platform was submerged in the NE quadrant of the watermaze. The rat was taken from the home cage and placed into the watermaze at one of four quasi-randomly determined locations (‘North’, ‘East’, ‘South’, or ‘West’) with its head facing, and almost touching, the pool wall. Trials began when the rat was released by the experimenter and ended when the rat climbed onto the platform and the mean escape latency was recorded. The maximum trial length was 60 s. If by that time the rat had not climbed on to the platform the trial ended automatically, the experimenter placed the rat on the platform and an escape latency of 60 s was recorded. The rat remained on the platform for 30 s and was then removed to a high-sided opaque plastic container for a further 30 s, (inter-trial interval, ITI). At the end of the ITI the rat was placed into the pool again, but at a different location and upon release the next trial began. This procedure was repeated until four trials had been completed.
# Normally, the escape latency declines over several days of training from 60 s to around 20 s. A ‘probe trial’ assess the rat's spatial memory for the location of the hidden platform. During this trial the platform was removed from the watermaze and the rat was allowed to search the pool for 60 s before it was removed from the pool. If the treatment improves the rat's memory for the location of the platform, it will spend longer searching the quadrant in which the platform had previously been hidden (NE) than a rat given vehicle treatment.
# Deficits in performance that might be due to drug-induced side-effects (such as blurred vision or motoric deficits resulting in an impaired ability to swim) were assessed using cued recall. In this procedure, the platform was also placed in the NE quadrant, but was raised 3 cm above the water level and thus visible to the rat. If the treatment has no effects on the mean escape latencies to the visible platform, then any group differences in mean escape latencies to an invisible platform can be attributed to an effect on cognitive process.
# Six days following the probe trial, during which time the rats were not expose to the watermaze or administered FG 8094, the rats were again tested with the platform submerged in the NE quadrant using the acquisition protocol.
# Reversal training was identical to the acquisition phase of the experiment with the exception that the platform was submerged in the middle of the SW quadrant.
# α5β3γ2 = target: T1, α5β3γ2 (Homo sapiens, UniProt P18507+P31644); assay: Radioligand binding, membranes of stably transfected cells
# T1 construct: expressed in transfected cells
# α5-containing receptors = assay: Occupancy of α5-containing receptors calculated by Clarke's equation; assay type: in vivo, mouse
# Experimental: If it is assumed that the percentage inhibition of in vivo [^3H]Ro 15-1788 binding is a measure of receptor occupancy then the concentration at the receptor site in brain can be calculated according to Clarke's equation (occupancy=[drug]/[drug]+Ki). Substituting the occupancy determined at α1 and α2/3-containing receptors, the concentration of FG 8094 available at BZ binding sites in […] is 7.8 nM and 13.2 nM respectively. Occupancy at α5-containing receptors cannot be measured directly because of the low abundance of the receptor, but it can be calculated using the concentration of drug and binding affinity using Clarke's equation. This predicts 95-97 % occupancy of α5-containing receptors 30 min after administration of FG 8094 (1 mg/kg).
# Forebrain (all α) = assay: In vivo [3H]Ro 15-1788 binding, forebrain; parameters: species or system mouse; conditions: 30 min, mean±SEM, relative to vehicle
# Experimental: The in vivo binding of [^3H]Ro 15-1788 to mouse brain was performed essentially as described by Goeders and Kuhar (1985). Male Swiss-Webster mice received a 0.9% NaCl solution containing 50 mCi/kg of [^3H]Ro 15-1788 (0.05 ml/10 g of body weight) via the tail vein. […] Each mouse brain was then rapidly removed, homogenised in 5.0 ml of 50 mM Tris HCl, 5.0 mM EDTA, pH 7.4 at 4° C. using an ultra-turrax homogeniser for 10 s at setting 5. In a separate series of experiments different brain regions, selected for their preferential expression of particular GABA subtypes were also examined. Binding of [^3H]Ro 15-1788 to cerebellum is almost exclusively α1-like (Quirk et al, 1994), whereas binding to spinal cord is indicative of binding to receptors containing α2 or α3-subtypes, α1, α4 and α5 are rare or absent in this region (Wisden et al, 1992). Brains were rapidly dissected into forebrain and cerebellum and the spinal cord was also removed. […] Volumes ([…]) of homogenate were filtered rapidly through GF/B filters, washed with 2×5.0 ml volumes of ice-cold buffer and the residual radioactivity was counted by liquid scintillation spectroscopy. […]
# α6β3γ2 = target: T2, α6β3γ2 (Homo sapiens, UniProt P18507+Q16445); assay: Radioligand binding, membranes of stably transfected cells
# T2 construct: expressed in transfected cells
# T2 sequence (Q16445 20-453): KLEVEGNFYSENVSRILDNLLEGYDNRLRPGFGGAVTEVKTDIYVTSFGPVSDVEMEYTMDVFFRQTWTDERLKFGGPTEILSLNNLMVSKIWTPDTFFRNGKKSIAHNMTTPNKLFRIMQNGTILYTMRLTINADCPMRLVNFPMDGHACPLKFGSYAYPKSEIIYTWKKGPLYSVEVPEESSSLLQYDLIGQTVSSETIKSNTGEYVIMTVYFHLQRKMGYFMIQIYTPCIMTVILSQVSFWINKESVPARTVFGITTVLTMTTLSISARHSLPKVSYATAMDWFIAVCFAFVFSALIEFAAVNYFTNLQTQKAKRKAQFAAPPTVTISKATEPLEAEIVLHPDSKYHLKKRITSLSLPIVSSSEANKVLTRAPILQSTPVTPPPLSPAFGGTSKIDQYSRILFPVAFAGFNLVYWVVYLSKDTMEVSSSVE
# T2 sequence (P28472 26-473 partner): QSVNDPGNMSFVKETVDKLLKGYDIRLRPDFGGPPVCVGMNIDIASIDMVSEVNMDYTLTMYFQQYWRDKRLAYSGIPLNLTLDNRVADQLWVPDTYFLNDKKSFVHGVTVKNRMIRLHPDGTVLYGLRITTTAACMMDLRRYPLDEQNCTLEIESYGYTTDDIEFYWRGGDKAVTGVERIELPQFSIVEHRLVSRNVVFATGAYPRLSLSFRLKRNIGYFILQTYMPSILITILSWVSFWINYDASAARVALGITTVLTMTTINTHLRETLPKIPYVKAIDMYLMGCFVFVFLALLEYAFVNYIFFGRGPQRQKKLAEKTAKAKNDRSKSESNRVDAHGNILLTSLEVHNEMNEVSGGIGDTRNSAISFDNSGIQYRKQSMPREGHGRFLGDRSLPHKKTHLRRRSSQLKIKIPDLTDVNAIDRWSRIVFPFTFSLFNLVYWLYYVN
# T2 sequence (P18507 40-467 isoform P18507-1 limits assumed): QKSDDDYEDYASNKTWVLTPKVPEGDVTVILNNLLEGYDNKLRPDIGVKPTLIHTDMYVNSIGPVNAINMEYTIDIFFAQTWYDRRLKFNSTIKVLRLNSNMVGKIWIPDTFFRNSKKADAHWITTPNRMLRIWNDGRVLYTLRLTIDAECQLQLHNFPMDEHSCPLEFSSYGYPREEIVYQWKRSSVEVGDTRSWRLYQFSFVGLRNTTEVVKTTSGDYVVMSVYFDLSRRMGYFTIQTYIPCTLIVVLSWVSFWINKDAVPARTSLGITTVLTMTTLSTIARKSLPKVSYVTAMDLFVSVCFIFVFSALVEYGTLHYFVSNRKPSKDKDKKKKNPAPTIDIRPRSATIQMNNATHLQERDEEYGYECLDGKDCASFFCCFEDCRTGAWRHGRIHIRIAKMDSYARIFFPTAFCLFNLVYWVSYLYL
# T1 sequence (P31644 32-462): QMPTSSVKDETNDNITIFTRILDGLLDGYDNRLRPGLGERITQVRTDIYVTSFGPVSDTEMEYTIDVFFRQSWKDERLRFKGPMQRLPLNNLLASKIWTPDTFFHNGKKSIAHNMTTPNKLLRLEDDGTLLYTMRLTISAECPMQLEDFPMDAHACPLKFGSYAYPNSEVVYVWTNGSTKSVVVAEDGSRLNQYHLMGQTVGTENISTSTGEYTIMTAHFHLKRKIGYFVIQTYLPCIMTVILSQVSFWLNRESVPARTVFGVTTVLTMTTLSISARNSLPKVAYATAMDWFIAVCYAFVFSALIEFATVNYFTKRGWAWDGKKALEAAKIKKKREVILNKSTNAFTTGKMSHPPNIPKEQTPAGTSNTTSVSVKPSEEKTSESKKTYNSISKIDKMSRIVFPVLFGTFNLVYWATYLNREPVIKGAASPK
# T1 sequence (P28472 26-473 partner): as the sequence (P28472 26-473 partner) above
# T1 sequence (P18507 40-467 isoform P18507-1 limits assumed): as the sequence (P18507 40-467 isoform P18507-1 limits assumed) above
structure (smiles),measurement,setting,value
"CCOC(=O)c1ncn2c1[C@@H]1CCCN1C(=O)c1cc(OC)ccc1-2 [FG 8094, 9H-imidazo[1,5-a]pyrrolo[2,1-C][1,4]benzodiazepine-1-carboxylic acid, 11, 12, 13, 13a-tetrahydro-7-methoxy-9-oxo-, ethyl ester, (S)-(9CI)]",convulsions or sedation,rats; SC pellet,did not cause convulsions or sedation
same,watermaze performance,"rats; pellet implanted SC 2 hrs before, training on one day",improved performance
same,"cued recall, mean escape latency to the visible platform","Male PVG hooded rats; 0.1, 0.3, 1.0 mg/kg IP",no significant effect of dose
same,"probe trial, time spent searching the platform quadrant","Male PVG hooded rats; 0.1, 0.3, 1.0 mg/kg IP",no difference in the amount of time the control and drug groups spent searching the quadrant
same,"cued recall, mean path length","Male PVG hooded rats; 0.1, 0.3, 1.0 mg/kg IP, post hoc Newman-Keuls",vehicle group traversed a significantly longer path than all the groups given FG 8094
same,"mean escape latencies, acquisition trials","Male PVG hooded rats; 0.3 and 1.0 mg/kg IP, nine day training","appear to be shorter than the vehicle control group or the 0.1 mg/kg group, the observation was not confirmed by Newman Keul post hoc tests"
same,mean swimming speed during escape to the hidden platform,"Male PVG hooded rats; acquisition trials, 0.1, 0.3, 1.0 mg/kg IP",no significant effect of dose
same,"reversal learning, mean escape latency","Male PVG hooded rats; platform moved to Southwest quadrant, first reversal day, p<0.05",mean escape latency of the vehicle group was significantly longer than all of the FG 8094 groups
same,"recall test, mean escape latency","Male PVG hooded rats; six days after probe trial, 0.1, 0.3, 1.0 mg/kg, p<0.05",mean escape latency of the vehicle group was longer than any of the FG 8094 groups
same,Ki,α5β3γ2,0.45 ± 0.15 nM
same,selectivity for α5-containing receptors over α1,α5β3γ2; over α1,107 fold
same,selectivity for α5-containing receptors over α2,α5β3γ2; over α2,60 fold
same,selectivity for α5-containing receptors over α3,α5β3γ2; over α3,53 fold
same,selectivity for α5-containing receptors over α6,α5β3γ2; over α6,184 fold
same,occupancy of α5-containing receptors,α5-containing receptors; 1.0 mg/kg,virtually all
same,predicted occupancy of α5-containing receptors,"α5-containing receptors; 30 min after 1 mg/kg, Clarke's equation",95-97%
same,"percentage inhibition of in vivo [3H]Ro 15-1788 binding, forebrain",Forebrain (all α); 1 mg/kg ip,8.3 ± 3.2
same,"percentage inhibition of in vivo [3H]Ro 15-1788 binding, forebrain",Forebrain (all α); 10 mg/kg ip,53.3 ± 4.2
same,Ki,α6β3γ2,83.2 ± 4.5 nM
